Molecular target: NLRP3 inflammasome (Homo sapiens (Human), UniProt Q96P20)
Assay: Evaluation of NLRP3 inflammasome inhibitory activity (inhibition of IL-1β production in LPS/Nigericin-stimulated THP1-Null cells)
Assay type: cell-based
Details: IL-1β production in THP1-Null cells; for IC50: PMA, LPS 1 μg/mL, Nigericin 7.5 μmol/L, AlphaLISA; for inhibition at 0.0024 µM: test compound 0.0024 μM
Summary of the method: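 THP1-Null cells primed with 1 μg/mL LPS, then treated with test compound; supernatant IL-1β quantified by AlphaLISA. Inhibition calculated with blank wells as 100% and control wells as 0%.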

NLRP3 inflammasome, sequence (Q96P20 whole entry): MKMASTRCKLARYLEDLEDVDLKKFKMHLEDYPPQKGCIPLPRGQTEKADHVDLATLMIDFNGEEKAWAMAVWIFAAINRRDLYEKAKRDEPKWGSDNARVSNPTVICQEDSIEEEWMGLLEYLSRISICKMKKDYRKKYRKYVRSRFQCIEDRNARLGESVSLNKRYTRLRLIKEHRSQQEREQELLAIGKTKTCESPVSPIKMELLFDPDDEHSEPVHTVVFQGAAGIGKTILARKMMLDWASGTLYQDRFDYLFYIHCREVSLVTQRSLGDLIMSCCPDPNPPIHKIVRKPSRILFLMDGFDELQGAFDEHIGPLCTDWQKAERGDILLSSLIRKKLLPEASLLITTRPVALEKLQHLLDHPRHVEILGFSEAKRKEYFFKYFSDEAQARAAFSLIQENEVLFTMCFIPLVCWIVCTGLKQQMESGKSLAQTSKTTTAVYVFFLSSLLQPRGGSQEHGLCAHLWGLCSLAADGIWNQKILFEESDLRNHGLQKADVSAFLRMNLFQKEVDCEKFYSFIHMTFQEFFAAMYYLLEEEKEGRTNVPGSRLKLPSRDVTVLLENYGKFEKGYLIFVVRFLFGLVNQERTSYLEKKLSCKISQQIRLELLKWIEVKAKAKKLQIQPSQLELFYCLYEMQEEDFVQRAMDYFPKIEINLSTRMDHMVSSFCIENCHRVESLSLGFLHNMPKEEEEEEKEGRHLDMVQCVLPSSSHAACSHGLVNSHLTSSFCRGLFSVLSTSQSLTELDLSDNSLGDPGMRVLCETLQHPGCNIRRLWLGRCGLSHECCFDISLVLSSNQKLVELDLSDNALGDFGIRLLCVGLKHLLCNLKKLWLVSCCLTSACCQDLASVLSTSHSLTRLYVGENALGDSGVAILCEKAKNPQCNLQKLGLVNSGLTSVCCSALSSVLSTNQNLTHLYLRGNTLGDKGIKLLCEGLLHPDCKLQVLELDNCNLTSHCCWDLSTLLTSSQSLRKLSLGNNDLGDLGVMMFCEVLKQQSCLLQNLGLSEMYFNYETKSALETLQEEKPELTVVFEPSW

| SMILES | IC50 | inhibition at 0.0024 µM |
| --- | --- | --- |
| Cc1cc(Cl)cc(C#N)c1-n1cc2c(=O)[nH]c(N3CCOCC3)nc2n1 [Example 168] | 60 nM | – |
| Cc1cc(Br)ccc1-n1cc2c(=O)[nH]c(N3CC4CC(C3)O4)nc2n1 [Example 169] | 17 nM | – |
| Cc1c2c(=O)[nH]c(N3CCCC3)nc2nn1-c1ccc(C(F)(F)F)cc1Cl [Example 170] | 88 nM | – |
| COc1ccc(-n2cc3c(=O)[nH]c(N4CCCC4)nc3n2)c(C)c1 [Example 171] | 29 nM | – |
| Cc1cc(Br)ccc1-n1cc2c(=O)n(CC#N)c(N3CCOCC3)nc2n1 [Example 172] | 190 nM | – |
| Cc1cc(Br)ccc1-n1cc2c(=O)n(CC#N)c(N3CCN(S(C)(=O)=O)CC3)nc2n1 [Example 173] | 120 nM | – |
| Cc1cc(Br)cc(C(F)(F)F)c1-n1cc2c(=O)[nH]c(N3CCOCC3)nc2n1 [Example 174] | 12 nM | – |
| Cc1cc(C2CC2)cc(C(F)(F)F)c1-n1cc2c(=O)[nH]c(N3CCOCC3)nc2n1 [Example 175] | 13 nM | – |
| O=c1[nH]c(N2CCOCC2)nc2nn(-c3ccc(Cl)cc3C(F)(F)F)cc12 [Example 176] | 27 nM | – |
| O=c1[nH]c(N2CCOCC2)nc2nn(-c3ccc(C4CC4)cc3C(F)(F)F)cc12 [Example 177] | 5.6 nM | – |
| CC(C)(C)OC(=O)N1CC2CN(c3nc4nn(-c5ccc(C(F)(F)F)cc5Cl)cc4c(=O)[nH]3)CC2C1 (stereo not drawn) [Example 179] | 27 nM | – |
| O=c1[nH]c(N2CC(CCO)C2)nc2nn(-c3ccc(C(F)(F)F)cc3Cl)cc12 [Example 180] | 35 nM | – |
| O=c1[nH]c(N2CC(F)C2)nc2nn(-c3ccc(C(F)(F)F)cc3Cl)cc12 [Example 181] | 17 nM | – |
| O=c1[nH]c(N2CC(O)C2)nc2nn(-c3ccc(C(F)(F)F)cc3Cl)cc12 [Example 182] | 79 nM | – |
| O=c1[nH]c(N2CC3(CC(O)C3)C2)nc2nn(-c3ccc(C(F)(F)F)cc3Cl)cc12 [Example 183] | 15 nM | – |
| O=c1[nH]c(NC2CCOCC2)nc2nn(-c3ccc(C(F)(F)F)cc3Cl)cc12 [Example 184] | 67 nM | – |
| CNc1nc2nn(-c3c(C)cc(Br)cc3C)cc2c(=O)[nH]1 [Example 185] | 5.6 nM | – |
| O=c1[nH]c(N2CC3CNCC3C2)nc2nn(-c3ccc(C(F)(F)F)cc3Cl)cc12 (stereo not drawn) [Example 186] | 230 nM | – |
| CC(=O)N1CC2CN(c3nc4nn(-c5ccc(C(F)(F)F)cc5Cl)cc4c(=O)[nH]3)CC2C1 (stereo not drawn) [Example 187] | 38 nM | – |

| SMILES | IC50 | inhibition at 0.0024 µM |
| --- | --- | --- |
| O=c1[nH]c(N2CCOCC2)nc2nn(-c3c(F)cc(C(F)(F)F)cc3Cl)cc12 [Example 189] | 20 nM | – |
| O=c1[nH]c(N2CCOCC2)nc2nn(-c3c(Cl)cc(C(F)(F)F)cc3OCC3CC3)cc12 [Example 190] | 41 nM | – |
| Cc1cc(Br)ccc1-n1cc2c(=O)[nH]c(N3CC4(COC4)C3)nc2n1 [Example 191] | 35 nM | – |
| COC[C@@H]1CCN(c2nc3nn(-c4ccc(Br)cc4C)cc3c(=O)[nH]2)CCO1 [Example 192] | 32 nM | – |
| COC[C@H]1CCN(c2nc3nn(-c4ccc(Br)cc4C)cc3c(=O)[nH]2)CCO1 [Example 193] | 42 nM | – |
| Cc1cc(Br)cc(C)c1-n1cc2c(=O)[nH]c(N3C[C@@H]4C[C@H]3CO4)nc2n1 [Example 195] | 6.8 nM | – |
| O=c1[nH]c(N2CCOCC2)nc2nn(-c3ccc(Br)cc3C3CC3)cc12 [Example 196] | 11 nM | – |
| Cc1cc(Br)cc(C)c1-n1cc2c(=O)[nH]c(N3C[C@H]4C[C@@H]3CO4)nc2n1 [Example 197] | 8 nM | – |
| Cc1cc(Br)cc(C)c1-n1cc2c(=O)[nH]c(N3CC(F)C3)nc2n1 [Example 198] | 8 nM | – |
| Cc1cc(Br)cc(C)c1-n1cc2c(=O)[nH]c(N3CC4(CC(O)C4)C3)nc2n1 [Example 199] | 6.8 nM | – |
| Cc1cc(OC(F)(F)F)cc(C)c1-n1cc2c(=O)[nH]c(N3CCOCC3)nc2n1 [Example 200] | 29 nM | – |
| O=c1[nH]c(N2CCOCC2)nc2nn(-c3ncc(C(F)(F)F)cc3Br)cc12 [Example 201] | 190 nM | – |
| Cc1cc(C2CC2)ncc1-n1cc2c(=O)[nH]c(N3CCOCC3)nc2n1 [Example 202] | 640 nM | – |
| COc1cc(Cl)ccc1-n1cc2c(=O)[nH]c(N3CCCC3)nc2n1 [Example 205] | 32 nM | – |
| O=c1[nH]c(N2CCOCC2)nc2nn(-c3ccc(Br)cc3OC(F)(F)F)cc12 [Example 206] | 12 nM | – |
| Cc1cc(C2CC2)cc(C)c1-n1cc2c(=O)[nH]c(N3C[C@@H]4C[C@H]3CO4)nc2n1 [Example 207] | 5.9 nM | – |
| O=c1[nH]c(N2CCOCC2)nc2nn(-c3ccc(C4CC4)cc3OC(F)(F)F)cc12 [Example 208] | 14 nM | – |
| Cc1cc(C2CC2)cc(C)c1-n1cc2c(=O)[nH]c(N3C[C@H]4C[C@@H]3CO4)nc2n1 [Example 209, 6-((1R,4R)-2-oxa-5-azabicyclo[2.2.1]heptan-5-yl)-2-(4-cyclopropyl-2,6-dimethylphenyl)-2,5-dihydro-4H-pyrazolo[3,4-d]pyrimidin-4-one] | 5.1 nM | – |
| O=c1[nH]c(N2CCOCC2)nc2nn(-c3ccc(C4CC4)cc3C3CC3)cc12 [Example 210] | 7.3 nM | – |

| SMILES | IC50 | inhibition at 0.0024 µM |
| --- | --- | --- |
| Cc1cc(Br)cc(C)c1-n1cc2c(=O)[nH]c(N3CC4CC(C3)O4)nc2n1 [Example 211] | 4.6 nM | – |
| O=c1[nH]c(N2CCCC2)nc2nn(-c3ccc(Cl)cc3C(F)(F)F)cc12 [Example 218] | 5.7 nM | – |
| Cc1cc(Br)cc(C)c1-n1cc2c(=O)[nH]c(N3C4CC3CN(S(C)(=O)=O)C4)nc2n1 [Example 221] | 25 nM | – |
| Cc1cc(Br)cc(C)c1-n1cc2c(=O)[nH]c(N3CC4CC(C3)N4S(C)(=O)=O)nc2n1 [Example 222] | 18 nM | – |
| CCNc1nc2nn(-c3c(C)cc(Br)cc3C)cc2c(=O)[nH]1 [Example 227] | – | 52% |
| Cc1cc(Br)cc(C)c1-n1cc2c(=O)[nH]c(NCC3CC3)nc2n1 [Example 228] | 7.7 nM | – |
| [2H]C([2H])([2H])Nc1nc2nn(-c3c(C)cc(Br)cc3C)cc2c(=O)[nH]1 [Example 229] | 9.4 nM | – |
| Cc1cc(Br)cc(C)c1-n1cc2c(=O)[nH]c(NC3CC3)nc2n1 [Example 230] | – | 60% |
| [2H]C([2H])([2H])Nc1nc2nn(-c3c(C)cc(C4CC4)cc3C)cc2c(=O)[nH]1 [Example 231] | 7.7 nM | – |
| Cc1cc(C2CC2)cc(C)c1-n1cc2c(=O)[nH]c(N3CC4CC(C3)O4)nc2n1 [Example 232] | 6 nM | – |
| Cc1cccc(C)c1-n1cc2c(=O)[nH]c(N3CCOCC3)nc2n1 [Example 233] | 760 nM | – |
| Cc1cc(Br)cc(C)c1-n1cc2c(=O)[nH]c(NC(C)C)nc2n1 [Example 235] | – | 52% |
| CC(C)c1cc(C(F)(F)F)cnc1-n1cc2c(=O)[nH]c(N3CCOCC3)nc2n1 [Example 236] | 730 nM | – |
| Cc1cc(C(F)(F)F)cc(C)c1-n1cc2c(=O)[nH]c(N3CCOCC3)nc2n1 [Example 237] | 23 nM | – |
| O=c1[nH]c(N2CCOCC2)nc2nn(-c3ccc(Br)cc3C(F)(F)F)cc12 [Example 241] | 11 nM | – |
| Cc1cc(C2CC2)ccc1-n1cc2c(=O)[nH]c(N3CCOCC3)nc2n1 [Example 242] | 24 nM | – |
| O=c1[nH]c(N2CCOCC2)nc2nn(-c3ccc(Br)cc3C(F)F)cc12 [Example 243] | 68 nM | – |
| O=c1[nH]c(N2CCOCC2)nc2nn(-c3ccc(C4CC4)cc3C(F)F)cc12 [Example 244] | 22 nM | – |
| Cc1cc(Br)cc(C)c1-n1cc2c(=O)[nH]c(N3CCN(C)CC3)nc2n1 [Example 246] | 15 nM | – |

Reference: patent US20240287079A1, “6-AMINOPYRAZOLOPYRIMIDINE COMPOUND AND PHARMACEUTICAL USE THEREOF” (Japan Tobacco Inc., priority 2021, published 2024)
